Measurements: patent EP0729956B1, “Benzothiophene compounds, intermediates, compositions, and methods” (ELI LILLY AND COMPANY, priority 1995, dated 1996)
Where a name gives a salt, the structure may show the parent alone. Read-outs that look alike come from different tables or passages of the source.

Experiments:
ovariectomized rats [1] = assay: Serum cholesterol analysis (OVX rat, 4-day dosing); type: in vivo, Sprague Dawley rats
Text: (§1) Seventy-five day old female Sprague Dawley rats (weight range of 200 to 225g) were obtained from Charles River Laboratories (Portage, MI). The animals were either bilaterally ovariectomized (OVX) or exposed to a Sham surgical procedure at Charles River Laboratories, and then shipped after one week. Upon arrival, they were housed in metal hanging cages in groups of 3 or 4 per cage and had ad libitum access to food (calcium content approximately 0.5%) and water for one week. Room temperature was maintained at 22.2° ± 1.7° C with a minimum relative humidity of 40%. The photoperiod in the room was 12 hours light and 12 hours dark.
(§2) After a one week acclimation period (therefore, two weeks post-OVX) daily dosing with test compound was initiated. 17a-ethynyl estradiol or the test compound were given orally, unless otherwise stated, as a suspension in 1% carboxymethylcellulose or dissolved in 20% cyclodextrin. Animals were dosed daily for 4 days. Following the dosing regimen, animals were weighed and anesthetized with a ketamine: Xylazine (2:1, V:V) mixture and a blood sample was collected by cardiac puncture. The animals were then sacrificed by asphyxiation with CO2, the uterus was removed through a midline incision, and a wet uterine weight was determined.
Blood samples were allowed to clot at room temperature for 2 hours, and serum was obtained following centrifugation for 10 minutes at 3000 rpm. Serum cholesterol was determined using a Boehringer Mannheim Diagnostics high performance cholesterol assay. Briefly the cholesterol was oxidized to cholest-4-en-3-one and hydrogen peroxide. The hydrogen peroxide was then reacted with phenol and 4-aminophenazone in the presence of peroxidase to produce a p-quinone imine dye, which was read spectrophotemetrically at 500 nm. Cholesterol concentration was then calculated against a standard curve. The entire assay was automated using a Biomek Automated Workstation.

ovariectomized rats [2] = system: ovariectomized rats; parameters: species or system Sprague Dawley rats; details: rat, in vivo; for Uterine EPO (V. max): po
Text: as §1, §2
Uteri were kept at 4° C until time of enzymatic analysis. The uteri were then homogenized in 50 volumes of 50 mM Tris buffer (pH - 8.0) containing 0.005% Triton X-100. Upon addition of 0.01% hydrogen peroxide and 10 mM O-phenylenediamine (final concentrations) in Tris buffer, increase in absorbance was monitored for one minute at 450 nm. The presence of eosonophils in the uterus is an indication of estrogenic activity of a compound. The maximal velocity of a 15 second interval was determined over the initial, linear portion of the reaction curve.

[3] = system: ovariectomized test animals; assay: Osteoporosis Test Procedure (OVX rat, 35-day dosing, distal femur metaphysis X-ray image analysis); type: in vivo, Sprague Dawley rats; details: OVX rats, daily for 35 days; for Distal Femur Metaphysis (X-ray Image Analysis-Gray Score): mean ± SEM
Text: as §1
Following the General Preparation Procedure, infra, the rats were treated daily for 35 days (6 rats per treatment group) and sacrificed by carbon dioxide asphyxiation on the 36th day. The 35 day time period was sufficient to allow maximal reduction in bone density, measured as described herein. At the time of sacrifice, the uteri were removed, dissected free of extraneous tissue, and the fluid contents were expelled before determination of wet weight in order to confirm estrogen deficiency associated with complete ovariectomy. […] The uteri were then placed in 10% neutral buffered formalin to allow for subsequent histological analysis.
The right femurs were excised and digitilized x-rays generated and analyzed by an image analysis program (NIH image) at the distal metaphysis. The proximal aspect of the tibiae from these animals were also scanned by quantitative computed tomography.
In accordance with the above procedures, compounds of the present invention and ethynyl estradiol (EE2) in 20% hydroxypropyl b-cyclodextrin were orally administered to test animals. Distal femur metaphysis data presented in Tables 2 and 3 below are the results of formula I compound treatments compared to intact and ovariectomized test animals. Results are reported as the mean ± the standard error of the mean.

[4] = Rattus norvegicus, po, 96 h, daily for 4 days, read-out: Serum Cholesterol (% decrease vs. OVX)
[5] = Table 3, oral, dose 0.1 mg/kg, OVX control 6.2 ± 1.4, Sham 31.1 ± 6.3

| Structure (SMILES) | Uterine EPO (V. max) (ovariectomized rats [2]; 0.01 mg/kg) | Uterine EPO (V. max) (ovariectomized rats [2]; 0.1 mg/kg) | Uterine EPO (V. max) (ovariectomized rats [2]; 1 mg/kg) | inhibition in vivo at 0.01 mg/kg (ovariectomized rats [1]; [4]) [%] | inhibition in vivo at 0.1 mg/kg (ovariectomized rats [1]; [4]) [%] | inhibition in vivo at 1 mg/kg (ovariectomized rats [1]; [4]) [%] | other results |
| --- | --- | --- | --- | --- | --- | --- | --- |
| O=C(Oc1ccc(-c2sc3cc(OC(=O)c4ccccc4)ccc3c2Oc2ccc(OCCN3CCCCC3)cc2)cc1)c1ccccc1 [Example 43, [6-Benzoyloxy-3-[4-[2-(1-piperidinyl)-ethoxy]phenoxy]-2-(4-benzoyloxyphenyl)]benzo[b]thiophene hydrochloride] | 3.3 | 4.8 | 6.0 | 9.2 | 43.8 | 39.4 | – |
| CCN(CC)CCCOc1ccc(Oc2c(-c3ccc(O)cc3)sc3cc(O)ccc23)cc1 [Example 25, [6-Hydroxy-3-[4-[3-(1-N,N-diethylamino)propoxy]phenoxy]-2-(4-hydroxyphenyl)]benzo [b]thiophene hydrochloride] | 3.0 | 3.3 | 36.0 | 13.1 | 67.6 | 73.9 | – |
| CC(C)N(CCOc1ccc(Oc2c(-c3ccc(O)cc3)sc3cc(O)ccc23)cc1)C(C)C [Example 26, [6-Hydroxy-3-[4-[2-(1-N,N-diisopropylamino)-ethoxy]phenoxy]-2-(4-hydroxyphenyl)]benzo[b]thiophene hydrochloride] | 4.8 | 29.1 | 175.1 | 29 | 45.2 | 62.7 | – |
| CCS(=O)(=O)Oc1ccc(-c2sc3cc(OS(=O)(=O)CC)ccc3c2Oc2ccc(OCCN3CCCCC3)cc2)cc1 [Example 44, [6-Ethylsulfonyloxy-3-[4-[2-(1-piperidinyl)ethoxy]-phenoxy]-2-(4-ethylsulfonyloxyphenyl)] benzo[b]thiophene hydrochloride] | 3.6 | 88.5 | 94.5 | 12.6 | 43.8 | 67.4 | – |
| C#C[C@]1(O)CC[C@H]2[C@@H]3CCc4cc(O)ccc4[C@H]3CC[C@@]21C [EE2, 17a-ethynyl estradiol, reference compound] | – | 308.1 | – | – | 94.8 | – | serum cholesterol compared to the ovariectomized control animals (in words) (ovariectomized rats [1]; oral, 4 days, EE2 at 0.1 mg/kg/day): caused a decrease in serum cholesterol; bone loss / femur density after ovariectomy (in words) ([3]; oral): prevented this loss; Distal Femur Metaphysis (X-ray Image Analysis-Gray Score) ([3]; Table 2, oral in 20% hydroxypropyl b-cyclodextrin, dose 0.1 mg/kg, OVX control 8.1 ± 1.8, Sham 27.2 ± 6.0): 11.5 ± 2.9∗; Distal Femur Metaphysis (X-ray Image Analysis-Gray Score) [3, 5]: 17.8 ± 3.5; eosinophil infiltration into the uterus (in words) (ovariectomized rats [2]): substantial, expected increase in eosinophil infiltration |

The next lines start with results.

| Uterine EPO (V. max) (ovariectomized rats [2]; 0.01 mg/kg) | Uterine EPO (V. max) (ovariectomized rats [2]; 0.1 mg/kg) | Uterine EPO (V. max) (ovariectomized rats [2]; 1 mg/kg) | Structure (SMILES) | inhibition in vivo at 0.01 mg/kg (ovariectomized rats [1]; [4]) [%] | inhibition in vivo at 0.1 mg/kg (ovariectomized rats [1]; [4]) [%] | inhibition in vivo at 1 mg/kg (ovariectomized rats [1]; [4]) [%] | other results |
| --- | --- | --- | --- | --- | --- | --- | --- |
| – | 3.9 | 4.8 | Oc1ccc(-c2sc3ccccc3c2Oc2ccc(OCCN3CCCCCC3)cc2)cc1 [Example 4, [3-[4-[2-(1-hexamethyleneimino)ethoxy]phenoxy]-2-(4-hydroxypbenyl)]benzo[b]thiophene] | – | 53.7 | 62.1 | inhibition in vivo at 10 mg/kg (ovariectomized rats [1]; [4]): 65.3%; Uterine EPO (V. max) (ovariectomized rats [2]; 10 mg/kg): 3.0 |
| 0.9 | 3.0 | – | Oc1ccc(-c2sc3cc(O)ccc3c2Oc2ccc(OCCN3CCCCC3)cc2)cc1 [Example 20, [6-hydroxy-3-[4-[2-(1-piperidinyl)ethoxy]-phenoxy]-2-(4-hydroxyphenyl)]benzo [b]thiophene hydrochloride] | – | – | – | inhibition in vivo at 0.05 mg/kg (ovariectomized rats [1]; Rattus norvegicus, po, 96 h, daily for 4 days, dose 0.05 mg/kg, read-out: Serum Cholesterol (% decrease vs. OVX)): 35.9%; Uterine EPO (V. max) (ovariectomized rats [2]; 0.05 mg/kg): 3.0 |
| – | 4.8 | 4.5 | c1ccc(-c2sc3ccccc3c2Oc2ccc(OCCN3CCCCC3)cc2)cc1 [Example 7, [3-[4-[2-(1-piperidinyl)ethoxy]phenoxy]-2-(phenyl)]benzo [b]thiophene hydrochloride] | – | 56.2 | 42.6 | inhibition in vivo at 5 mg/kg (ovariectomized rats [1]; Rattus norvegicus, po, 96 h, daily for 4 days, dose 5.0 mg/kg, read-out: Serum Cholesterol (% decrease vs. OVX)): 29.5%; Uterine EPO (V. max) (ovariectomized rats [2]; 5 mg/kg): 4.8 |
| 3.6 | 0.9 | 29.4 | Oc1ccc(-c2sc3cc(O)ccc3c2Oc2ccc(OCCN3CCOCC3)cc2)cc1 [Example 24, [6-Hydroxy-3-[4-[2-(morpholino)ethoxy]phenoxy]-2-(4-hydroxyphenyl)]benzo[b]thiophene hydrochloride] | 23.7 | 46.4 | 79.3 | Distal Femur Metaphysis (X-ray Image Analysis-Gray Score) [3, 5]: 18.3 ± 2.6∗; Distal Femur Metaphysis (X-ray Image Analysis-Gray Score) ([3]; Table 3, oral, dose 1.0 mg/kg, OVX control 6.2 ± 1.4, Sham 31.1 ± 6.3): 19.6 ± 2.3∗; Distal Femur Metaphysis (X-ray Image Analysis-Gray Score) ([3]; Table 3, oral, dose 3.0 mg/kg, OVX control 6.2 ± 1.4, Sham 31.1 ± 6.3): 17.1 ± 5.5 |
| 3.3 | 4.8 | 52.5 | Oc1ccc(-c2sc3cc(O)ccc3c2Oc2ccc(OCCCN3CCCCC3)cc2)cc1 [Example 27, [6-Hydroxy-3-[4-[3-(piperidino)propoxy]phenoxy]-2-(4-hydroxyphenyl)]benzo[b]thiophene hydrochloride] | 12.2 | 50.8 | 76.5 | – |
| – | 7.2 | 54.6 | CCN(CC)CCOc1ccc(Oc2c(-c3ccc(O)cc3)sc3ccccc23)cc1 [Example 5, [3-[4-[2-(1-N,N-diethylamino)ethoxy]phenoxy]-2-(4-bydroxyphenyl)]benzo[b]thiophene] | – | 67.2 | 67.7 | inhibition in vivo at 10 mg/kg (ovariectomized rats [1]; [4]): 60.2%; Uterine EPO (V. max) (ovariectomized rats [2]; 10 mg/kg): 59.4 |
